The text below walks through data of US20190375708A1 (VenatoRx Pharmaceuticals, Inc., priority 2018, published 2019).

The structures appear in SMILES notation. pEC50: −log10 of the molar value. A value given as a limit tells only on which side of the number the result lay.

A short description of data set [1]: In vitro cytotoxicity assay (MTT cell viability) in HepG2 cells. The conditions noted are these: human. Format: cell-based, human. In a few lines:
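HepG2 cells incubated 7 days at 37 °C, 5% CO2 with compounds from 30 μM to 1.0 nM (8 half-log dilutions). Viability read as MTT formazan absorbance at 492 nm, normalised to vehicle controls; CC50 from 4-parameter non-linear regression.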

The test system of data set [2] is HBV replication in HepAD38 cells. Briefly: Anti-HBV replication assay in HepAD38 cells (QPCR of extracellular HBV DNA). Format: cell-based, HBV (genotype D, serotype ayw). The conditions noted are these: Hepatitis B virus, 168 h, 7 days incubation, extracellular HBV DNA by QPCR, read-out: Anti-HBV EC50. The method, boiled down: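 Stably transfected HepG2-derived HepAD38 cells express HBV (genotype D, ayw) once tetracycline is withdrawn. Compounds act for 7 days, after which secreted HBV DNA is quantified by QPCR relative to DMSO-treated wells.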

Compound `Cc1cc(NC(=O)c2c(C)c(C(=O)C(=O)N[C@H]3CC[C@H](O)CC3)n(C)c2C)cnc1F` [Example 175, N-(6-fluoro-5-methylpyridin-3-yl)-5-(2-(((1r,4r)-4-hydroxycyclohexyl)amino)-2-oxoacetyl)-1,2,4-trimethyl-1H-pyrrole-3-carboxamide] gave a CC50 at 7 days in data set [1] of over 30000 nM. For the same compound, in data set [2], the pEC50 is 6.30 to 7.30.

`Cc1cc(NC(=O)c2c(C)c(C(=O)C(=O)N[C@@H]3CC[C@@H](O)C3)n(C)c2C)cnc1F` [Example 176, N-(6-fluoro-5-methylpyridin-3-yl)-5-(2-(((1R,3R)-3-hydroxycyclopentyl)amino)-2-oxoacetyl)-1,2,4-trimethyl-1H-pyrrole-3-carboxamide]: the CC50 at 7 days in data set [1] was over 30000 nM. The pEC50 in data set [2] is 6.30 to 7.30.

Take `Cc1cc(NC(=O)c2c(C)c(C(=O)C(=O)N[C@H](CO)[C@@H](C)O)n(CCF)c2C)ccc1F` [Example 177, 5-(2-(((2R,3R)-1,3-dihydroxybutan-2-yl)amino)-2-oxoacetyl)-N-(4-fluoro-3-methylphenyl)-1-(2-fluoroethyl)-2,4-dimethyl-1H-pyrrole-3-carboxamide]: the CC50 at 7 days in data set [1] lay in the range of 5000 to 30000 nM. In addition, the pEC50 in data set [2] was 6.30 to 7.30.

For `Cc1cc(NC(=O)c2c(C)c(C(=O)C(=O)NCC(C)(C)O)n(CCF)c2C)ccc1F` [Example 178, N-(4-fluoro-3-methylphenyl)-1-(2-fluoroethyl)-5-(2-((2-hydroxy-2-methylpropyl)amino)-2-oxoacetyl)-2,4-dimethyl-1H-pyrrole-3-carboxamide], in data set [1], the CC50 at 7 days is 5000 to 30000 nM. Besides, in data set [2], the pEC50 was 6.30 to 7.30.

`Cc1cc(NC(=O)c2c(C)c(C(=O)C(=O)NC3(CO)CC(F)(F)C3)n(CCF)c2C)ccc1F` [Example 179, 5-(2-((3,3-difluoro-1-(hydroxymethyl)cyclobutyl)amino)-2-oxoacetyl)-N-(4-fluoro-33-methylphenyl)-1-(2-fluoroethyl)-2,4-dimethyl-1H-pyrrole-3-carboxamide]: the CC50 at 7 days in data set [1] fell in the range of 5000 to 30000 nM. Also, the pEC50 in data set [2] is over 7.30.

In data set [1], `CC[C@@H](CO)NC(=O)C(=O)c1c(C)c(C(=O)Nc2ccc(F)c(C)c2)c(C)n1CCF` [Example 180, (S)-N-(4-fluoro-3-methylphenyl)-1(2-fluoroethyl)-5-(2-((1-hydroxybutan-2-yl)amino)-2-oxoacetyl)-2,4-dimethyl-1H-pyrrole-3-carboxamide] showed a CC50 at 7 days of 5000 to 30000 nM. For the same compound, in data set [2], the pEC50 was over 7.30.

With `Cc1nnc(C(C)NC(=O)C(=O)c2c(C)c(C(=O)Nc3ccc(F)c(C)c3)c(C)n2C)o1` (centres unmarked) [Example 181, N-(4-fluoro-3-methylphenyl)-1,2,4-trimethyl-5-(2-((1-(5-methyl-1,3,4-oxadiazol-2-yl)ethyl)amino)-2-oxoacetyl)-1H-pyrrole-3-carboxamide], in data set [1], the CC50 at 7 days is over 30000 nM. The pEC50 in data set [2] was over 7.30.

`Cc1nnc(C2(NC(=O)C(=O)c3c(C)c(C(=O)Nc4ccc(F)c(C)c4)c(C)n3C)CC2)o1` [Example 182, N-(4-fluoro-3-methylphenyl)-1,2,4-trimethyl-5-(2-((1-(5-methyl-1,3,4-oxadiazol-2-yl)cyclopropyl)amino)-2-oxoacetyl)-1H-pyrrole-3-carboxamide] showed a CC50 at 7 days in data set [1] of over 30000 nM. Also, the pEC50 in data set [2] is over 7.30.

In turn, `Cc1cc(NC(=O)c2c(C)c(C(=O)C(=O)NCC(C)(C)O)n(C)c2C)cnc1F` [Example 183, N-(6-fluoro-5-methylpyridin-3-yl)-5-(2-((2-hydroxy-2-methylpropyl)amino)-2-oxoacetyl)-1,2,4-trimethyl-1H-pyrrole-3-carboxamide] yielded a CC50 at 7 days in data set [1] of over 30000 nM. In addition, the pEC50 in data set [2] was 6.00 to 6.30.

`Cc1cc(NC(=O)c2c(C)c(C(=O)C(=O)NC3(CO)CC(F)(F)C3)n(C)c2C)cnc1F` [Example 184, 5-(2-((3,3-difluoro-1-(hydroxymethyl)cyclobutyl)amino)-2-oxoacetyl)-N-(6-fluoro-5-methylpyridin-3-yl)-1,2,4-trimethyl-1H-pyrrole-3-carboxamide] displayed a CC50 at 7 days in data set [1] of over 30000 nM. The pEC50 in data set [2] was over 7.30.

For the compound `Cc1cc(NC(=O)c2c(C)c(C(=O)C(=O)N[C@H](CO)[C@@H](C)O)n(C)c2C)cnc1F` [Example 185, 5-(2-(((2R,3R)-1,3-dihydroxybutan-2-yl)amino)-2-oxoacetyl)-N-(6-fluoro-5-methylpyridin-3-yl)-1,2,4-trimethyl-1H-pyrrole--3 carboxamide], the CC50 at 7 days in data set [1] was over 30000 nM. Further, the pEC50 in data set [2] is 6.00 to 6.30.

As to `CC[C@@H](CO)NC(=O)C(=O)c1c(C)c(C(=O)Nc2cnc(F)c(C)c2)c(C)n1C` [Example 186, (S)-N-(6-fluoro-5-methylpyridin-3-yl)-5-(2-((1-hydroxybutan-2-yl)amino)-2-oxoacetyl)-1,2,4-trimethyl-1H-pyrrole-3-carboxamide], in data set [1], the CC50 at 7 days was over 30000 nM. Besides, the pEC50 in data set [2] is 6.30 to 7.30.

Turning to `Cc1cc(NC(=O)c2c(C)c(C(=O)C(=O)N[C@H]3CCOC[C@@H]3O)n(C)c2C)ccc1F` [Example 187, N-(4-fluoro-3-methylphenyl)-5-(2-(((3R,4S)-3-hydroxytetrahydro-2H-pyran-4-yl)amino)-2-oxoacetyl)-1,2,4-trimethyl-1H-pyrrole-3-carboxamide], the CC50 at 7 days in data set [1] was over 30000 nM. The pEC50 in data set [2] was under 6.00.

In data set [1], `Cc1c(C(=O)Nc2ccnc(F)c2)c(C)n(C)c1C(=O)C(=O)NC12CC3CC(CC(O)(C3)C1)C2` [Example 188, N-(2-fluoropyridin-4-yl)-5-(2-(((1r,3s,5R,7S)-3-hydroxyadamantan-1-yl)amino)-2-oxoacetyl)-1,2,4-trimethyl-1H-pyrrole-3-carboxamide] showed a CC50 at 7 days of over 30000 nM. Further, the pEC50 in data set [2] was 6.30 to 7.30.

Regarding `Cc1c(C(=O)Nc2ccc(F)c(Cl)c2)c(C)n(C)c1C(=O)C(=O)NC(C)(C)CO` [Example 189, N-(3-chloro-4-fluorophenyl)-5-(2-((1-hydroxy-2-methylpropan-2-yl)amino)-2-oxoacetyl)-1,2,4-trimethyl-1H-pyrrole-3-carboxamide], the CC50 at 7 days in data set [1] is over 30000 nM. The pEC50 in data set [2] is over 7.30.

In turn, `Cc1c(C(=O)Nc2ccnc(Cl)c2)c(C)n(C)c1C(=O)C(=O)NC(C)(C)CO` [Example 190, N-(2-chloropyridin-4-yl)-5-(2-((1-hydroxy-2-methylpropan-2-yl)amino)-2-oxoacetyl)-1,2,4-trimethyl-1H-pyrrole-3-carboxamide] had a CC50 at 7 days in data set [1] of over 30000 nM. Also, the pEC50 in data set [2] is over 7.30.

For the compound `Cc1cc(NC(=O)c2c(C)c(C(=O)C(=O)NC3CCSCC3)n(C)c2C)cnc1F` [Example 191, N-(6-fluoro-5-methylpyridin-3-yl)-1,2,4-trimethyl-5-(2-oxo-2-((tetrahydro-2H-thiopyran-4-yl)amino)acetyl)-1H-pyrrole-3-carboxamide], the CC50 at 7 days in data set [1] is over 30000 nM. Moreover, in data set [2], the pEC50 was over 7.30.

`Cc1cc(NC(=O)c2c(C)c(C(=O)C(=O)N3CCC(F)(F)C3)n(C)c2C)cnc1F` [Example 192, 5-(2-(3,3-difluoropyrrolidin-1-yl)-2-oxoacetyl)-N-(6-fluoro-5-methylpyridin-3-yl)-1,2,4-trimethyl-1H-pyrrole-3-carboxamide] came in with a CC50 at 7 days in data set [1] of over 30000 nM. The pEC50 in data set [2] is 6.00 to 6.30.

For the compound `Cc1cc(NC(=O)c2c(C)c(C(=O)C(=O)N3C4CCCC3CC(=O)C4)n(C)c2C)cnc1F` [Example 193, N-(6-fluoro-5-methylpyridin-3-yl)-1,2,4-trimethyl-5-(2-oxo-2-(3-oxo-9-azabicyclo[3.3.1]nonan-9-yl)acetyl)-1H-pyrrole-3-carboxamide], the CC50 at 7 days in data set [1] is over 30000 nM. In addition, the pEC50 in data set [2] was under 6.00.

`Cc1cc(NC(=O)c2c(C)c(C(=O)C(=O)N[C@H]3CC[C@H](O)C3)n(CCF)c2C)ccc1F` [Example 194, N-(4-fluoro-3-methylphenyl)-1-(2-fluoroethyl)-5-(2-(((1S,3S)-3-hydroxycyclopentyl)amino)-2-oxoacetyl)-2,4-dimethyl-1H-pyrrole-3-carboxamide] gave a CC50 at 7 days in data set [1] of over 30000 nM. Further, the pEC50 in data set [2] was 6.30 to 7.30.

Turning to `Cc1cc(NC(=O)c2c(C)c(C(=O)C(=O)N[C@@H]3CCC[C@H]3O)n(CCF)c2C)ccc1F` [Example 195, N-(4-fluoro-3-methylphenyl)-1-(2-fluoroethyl)-5-(2-(((1R,2R)-2-hydroxycyclopentyl)amino)-2-oxoacetyl)-2,4-dimethyl-1H-pyrrole-3-carboxamide], the CC50 at 7 days in data set [1] was over 30000 nM. Also, the pEC50 in data set [2] was over 7.30.

For `Cc1cc(NC(=O)c2c(C)c(C(=O)C(=O)N[C@@H]3CCOC[C@H]3O)n(CCF)c2C)ccc1F` [Example 196, N-(4-fluoro-3-methylphenyl)-1-(2-fluoroethyl)-5-(2-(((3S,4R)-3-hydroxytetrahydro-2H-pyran-4-yl)amino)-2-oxoacetyl)-2,4-dimethyl-1H-pyrrole-3-carboxamide], the CC50 at 7 days in data set [1] was over 30000 nM. For the same compound, in data set [2], the pEC50 was 6.30 to 7.30.

Turning to `Cc1cc(NC(=O)c2c(C)c(C(=O)C(=O)N[C@@H]3CC[C@@H](O)[C@@H]3O)n(CCF)c2C)ccc1F` [Example 197], in data set [1], the CC50 at 7 days is over 30000 nM. Further, the pEC50 in data set [2] is 6.30 to 7.30.

On to `Cc1cc(NC(=O)c2c(C)c(C(=O)C(=O)N[C@H]3CC[C@H](O)CC3)n(CCF)c2C)ccc1F` [Example 198, N-(4-fluoro-3-methylphenyl)-1-(2-fluoroethyl)-5-(2-(((1r,4r)-4-hydroxycyclohexyl)amino)-2-oxoacetyl)-2,4-dimethyl-1H-pyrrole-3-carboxamide], for which the CC50 at 7 days in data set [1] is over 30000 nM. Moreover, in data set [2], the pEC50 is 6.30 to 7.30.

As to `Cc1cc(NC(=O)c2c(C)c(C(=O)C(=O)N[C@H](C)[C@@H](C)O)n(C)c2C)ccc1F` [Example 199, N-(4-fluoro-3-methylphenyl)-5-(2-(((2R,3R)-3-hydroxybutan-2-yl)amino)-2-oxoacetyl)-1,2,4-trimethyl-1H-pyrrole-3-carboxamide], the CC50 at 7 days in data set [1] was over 30000 nM. The pEC50 in data set [2] was over 7.30.

For orientation: CC50 means the concentration at which the toxic effect on the cells reaches its halfway point. High values mean lower toxicity to the cells, low ones greater toxicity to the cells. As a reminder, the pEC50 is the negative decadic logarithm of the EC50, by convention in mol/L.
